Results on four compounds are retold here after patent US5356882A, “Antiviral pyrimidine nucleosides” (University of Birmingham, priority 1989, dated 1994).

Data set [1] is described as follows: toxicity / therapeutic index (general statement). Conditions: statement in words.
The next data set concerns HSV2. Description: Anti-HSV Activity, plaque reduction assay in Vero cells (HSV-2 strain 186). The format is cell-based, Herpes Simplex Virus type 2 (strain 186). The protocol: (§1) Herpes Simplex Virus types 1 (HSV 1) and 2 (HSV2) were assayed in monolayers of Vero cells in multiwell trays. The virus strains used were SC16 and 186 for HSV-1 and HSV-2 respectively. Activity of compounds was determined in the plaque reduction assay, in which a cell monolayer was infected with a suspension of the appropirate HSV, and then overlaid with nutrient agarose in the form of a gel to ensure that there was no spread of virus throughout the culture. A range of concentrations of compound of known molarity was incorporated in the nutrient agarose overlay. Plaque numbers at each concentration were expressed as percentages of the control and a dose-response curve was drawn. From this curve the 50% inhibitory concentration (IC50) was estimated to be 0.66 μm for the compound of formula (I) in which X represents a 2-bromovinyl group.
Background: In a plaque reduction assay, fewer plaques than in the control indicate reduced infectivity or spread.

A further data set concerns HSV1. Description: Anti-HSV Activity, plaque reduction assay in Vero cells (HSV-1 strain SC16). The format is cell-based, Herpes Simplex Virus type 1 (strain SC16). As for the experimental part:
as §1

In the next data set the test system is VZV. Briefly: Anti-VZV Activity, plaque reduction assay in MRC-5 cells. The settings on record: Human alphaherpesvirus 3, MRC5, MRC-5 cells, clinical isolates. The format is cell-based, varicella zoster virus (clinical isolates). The protocol:
Clinical isolates of varicella zoster virus (VZV) were assayed in monolayers of MRC-5 cells. MRC-5 cells are derived from human embyonic lung tissue. A plaque reduction assay was used in which a suspension Of the virus stock was used to infect monolayers of the cells in multiwell trays. a range of concentrations of the compound under test of known molarity was added to the wells. Plaque numbers at each concnetration were expressed as percentages of the control and a dose response curve was constructed. From these curves the 50% inhibitory concentration of each drug was determined.

A short description of data set [2]: CCID50 (Table 1; method not described). The format is cell-based.

Where only a bound is given, the exact number is not on record here.

For `Cc1cn([C@H]2C[C@H](O)[C@@H](CO)S2)c(=O)[nH]c1=O` [β-4'-thio-thymidine], the toxicity result in data set [1] was “toxic”. Moreover, in the data set on HSV2 (statement in words), the “activity against HSV2” value is “good activity”. The “activity against HSV1” value in the data set on HSV1 (statement in words) is listed as “good activity”. The term IC50 denotes the concentration that inhibits the measured activity by half. Read a high IC50 as a need for much substance. Turning to `Nc1nc(=O)n([C@H]2C[C@H](O)[C@@H](CO)S2)cc1/C=C/Br` [CH=CHBr, NH2, 2'-Deoxy-5-E-(2-bromovinyl)-4'-thiocytidine], the IC50 in the data set on HSV2 (Vero cells, strain 186, plaque reduction) is more than 10000 nM; in the data set on HSV1 (Vero cells, strain SC16, plaque reduction), approximately 2300 nM. For the compound `CCc1cn([C@H]2C[C@H](O)[C@@H](CO)S2)c(=O)[nH]c1=O` [CH2 CH3, OH, 2'-Deoxy-5-ethyl-4'thiouridine], the concentration for half-maximal inhibition (IC50) in the data set on VZV was 790 nM. That is a sub-micromolar value.

As a reminder, the CC50 is the concentration that lowers cell viability or growth by half. A lower CC50 goes with harm at low concentration. `O=c1[nH]c(=O)n([C@H]2C[C@H](O)[C@@H](CO)S2)cc1/C=C/Br` [CH=CHBr, OH, E-5-(2-bromovinyl)-2'-deoxy-4'-thiouridine]: in data set [2], the CC50 was more than 500000 nM.
